How the values were obtained:
CYP3A [1] = biological target: T1, CYP3A (Homo sapiens, UniProt P08684); test: Reversible CYP3A inhibition, testosterone 6β-hydroxylation in human liver microsomes; assay type: in vitro ADME; details: HLMs, Lineweaver-Burk plot
Protocol: (§1) A NADPH regenerating system (NADPH-gs, containing 10 mM glucose-6-phosphate, 5 mM magnesium chloride, 1 U/mL glucose-6-phosphate dehydrogenase and 1 mM NADP+) was constructed. The metabolite of Tes, 6OH-Tes, was assayed by UHPLC-MS method (I) for CYP3A activity assessment.
The CYP3A inhibition by Gom A was preliminarily evaluated. […] After a 5 min warm up period, reactions were initiated with addition of NADPH-gs. Incubations were conducted at 37 °C for 10 min and then terminated by the addition of 200 µL ice-cold acetonitrile containing 18 ng/mL phenacetin (IS-I). […] Incubations were processed and terminated as described earlier.
(§2) Pharmacokinetic profiles of CTX and DCCTX were estimated by one-compartmental model using the DAS 2.0 software ([…], Medical College of Wannan, Anhui, China). Data were expressed as mean ± SD. Comparisons between two groups were performed using one-way ANOVA followed by LSD test in the condition of variance homogeneity or Dunnett T3 test in the case of variance heterogeneity. […] IC50 values of Gom A were determined by nonlinear regression analysis using GraphPad Prism 5.01 software (GraphPad Software Inc., San Diego, CA, USA). The mode of inhibition was verified by Lineweaver-Burk plots of the enzyme kinetic data, and the KI value was determined by linear regression analysis with GraphPad Prism 5.01 (GraphPad Software Inc.). […]

CYP3A [2] = biological target: T1, CYP3A; test: IC50 shift assay (time- and NADPH-dependent inhibition) in HLMs; assay type: in vitro ADME
Protocol: as §1
In a final volume of 100 µL, Gom A at different concentrations (0, 0.08, 0.31, 0.63, 2.5, 10 and 40 µM) was preincubated with 10 × HLMs (5 mg/mL) at 37 °C with NADPH-gs in PBS (0.1 M). After 30 min, the incubation mixture was diluted 10 folds using PBS (0.1 M). Then 100 µL of the diluted mixture was added into a secondary incubation containing NADPH-gs and 25 µM Tes. The final volume was 200 µL. After 10 min incubation, the reaction was terminated by the addition of 200 µL ice-cold acetonitrile containing 18 ng/mL phenacetin (IS-I). […]
as §2, with “SD.” for “SD. Comparisons between two groups were performed using one-way ANOVA followed by LSD test in the condition of variance homogeneity or Dunnett T3 test in the case of variance heterogeneity.”

rat hepatic CYP3A = test: Effect of Gom A pretreatment on rat hepatic CYP3A activity (liver microsomes from pretreated rats); assay type: in vivo; details: RLMs; for DCCTX production decrease compared with control group: CTX 100 ng/mL; for rat hepatic CYP3A activity, % of the control group activity: Tes 25 µM
Protocol: Rats were randomly divided into four groups (control group; pretreatment groups: 0.5 h group, 6 h group, 12 h group). Rats in control group and pretreatment groups were administrated (i.g.) with saline (2 mL/kg) and Gom A (20.8 mg/kg) respectively. In control group, rats were anesthetized 0.5 h after administration. In pretreatment groups, rats were anesthetized 0.5 h, 6 h, 12 h after Gom A pretreatment respectively. After anesthesia, the rat livers were infused with cool saline. After infusion, rats were euthanized and livers were collected. The liver microsomes were prepared using calcium precipitation method. Briefly, livers were weighted, washed with cool PBS (0.1 M), and then homogenized in cool Tris-PBS (50 mM Tris, w/v = 1:4). The mixture was centrifuged at 14,000 g for 20 min at 4 °C. The supernatant was mixed with CaCl2 solution (88 mM, vsupernantant/vCaCl2 = 10:1) and then centrifuged at 14,000 g for 20 min at 4 °C. The precipitate was resuspended in Tris-PBS and centrifuged (14,000 g, 4 °C, 20 min). Finally, the precipitate was resuspended in PBS containing 250 mM glucose, giving a concentration of 5 mg protein/mL. The prepared microsomes were stored at −80 °C until use.
To determine the effect of Gom A pretreatment on rat hepatic CYP3A activity, liver microsomes from control and pretreatment groups were incubated with Tes (25 µM) and CTX (100 ng/mL) respectively. The incubation procedures were similar with Section 4.3.1 and Section 4.3.4 for Tes and CTX incubation, respectively. For incubations using Tes, 0.5 mg/mL RLMs was incubated with 25 µM Tes in PBS (0.1 M) containing NADPH-gs at 37 °C in a total volume of 200 µL. After a 5 min warm up period, reactions were initiated with addition of NADPH-gs. Incubations were conducted at 37 °C for 10 min and then terminated by the addition of 200 µL ice-cold acetonitrile containing 18 ng/mL phenacetin (IS-I). For incubations using CTX, 0.5 mg/mL RLMs was incubated with 100 ng/mL CTX in PBS (0.1 M) containing NADPH-gs at 37 °C in a total volume of 200 µL. After a 5 min warm up period, reactions were initiated with addition of NADPH-gs. Incubations were conducted at 37 °C for 60 min and then terminated by the addition of 200 µL ice-cold acetonitrile containing 6 ng/mL of TNZ (IS-II).
After reaction termination, concentration of 6OH-Tes and DCCTX were determined.

[3] = 0.5 h after Gom A 20.8 mg/kg i.g.
[4] = 6 h after Gom A 20.8 mg/kg i.g.
[5] = 12 h after Gom A 20.8 mg/kg i.g.

T1 sequence (P08684 2-503): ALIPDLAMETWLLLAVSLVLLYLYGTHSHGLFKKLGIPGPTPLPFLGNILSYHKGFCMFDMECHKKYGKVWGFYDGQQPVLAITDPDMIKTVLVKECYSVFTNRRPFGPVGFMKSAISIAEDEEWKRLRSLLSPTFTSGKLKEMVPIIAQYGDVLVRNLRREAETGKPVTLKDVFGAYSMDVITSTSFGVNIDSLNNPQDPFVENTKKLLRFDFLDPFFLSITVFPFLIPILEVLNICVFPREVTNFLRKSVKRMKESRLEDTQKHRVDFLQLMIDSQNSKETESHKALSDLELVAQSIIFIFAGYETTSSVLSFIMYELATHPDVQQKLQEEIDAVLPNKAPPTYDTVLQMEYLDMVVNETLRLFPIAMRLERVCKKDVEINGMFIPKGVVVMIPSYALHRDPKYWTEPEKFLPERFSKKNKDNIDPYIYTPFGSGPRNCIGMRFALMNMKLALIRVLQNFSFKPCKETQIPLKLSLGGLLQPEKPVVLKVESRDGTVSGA

Gomisin A [Gom A]
mode of inhibition (CYP3A [1]): competitive inhibitor | NADPH dependence of CYP3A inhibition (CYP3A [2]; Gom A 1 µM preincubated 30 min with vs without NADPH-gs, data not shown): more potent when Gom A was preincubated with NADPH | shift in IC50 (CYP3A [2]; with vs without 30 min preincubation): 1.8 fold | DCCTX production decrease compared with control group (rat hepatic CYP3A; [3]): 54.7% | rat hepatic CYP3A activity, % of the control group activity (rat hepatic CYP3A; [3]): 52.1% | DCCTX production decrease compared with control group (rat hepatic CYP3A; [4]): 52.0% | rat hepatic CYP3A activity, % of the control group activity (rat hepatic CYP3A; [4]): 37.3% | DCCTX production decrease compared with control group (rat hepatic CYP3A; [5]): 40.5% | rat hepatic CYP3A activity, % of the control group activity (rat hepatic CYP3A; [5]): 61.2%
